Target: PASK (Invitrogen) (Homo sapiens (Human), UniProt Q96RG2)
Test: PAS Kinase FRET Assay
Assay type: biochemical
Details: TR-FRET (665 nm/615 nm), Ulight-peptide substrate, 2 hours at 25° C.; read-out: IC50 Kinase Domain
Text: The aim of the FRET assay is to determine the inhibition potential of test compounds on targeted kinase. This assay platform provides a homogenous screening method for measuring kinase activity by quantitating the amount of phospho-substrate in solution following a kinase reaction.
In the presence of kinase and ATP, the Ulight-peptide is phosphorylated and captured by an anti-phospho-substrate antibody, which brings the Eu chelate donor and Ulight acceptor dyes into close proximity. Upon excitation at 340 nm, the Eu chelate transfers its energy to the Ulight dye, resulting in a fluorescent light emission at 665 nm.
Titration of kinase at 1 mM ATP was achieved via the following protocol. After making serial three-fold dilutions of PASK (Invitrogen) in reaction buffer across the plate; 5 μl of kinase dilution and 5 μl substrate/ATP mix were added to the wells of the white Optiplate-384 (PerkinElmer). The contents of the plate were and incubated at RT for 1 h. The reaction was stopped by adding 5 μl of stop solution to each test well followed by mixing and incubation at RT for 10 minutes. 5 μl of detection mix (detection antibody diluted in detection buffer) was added; the contents of the plate were mixed and then incubated in the dark for 1 hour at RT. The signal was recorded at TR-FRET mode (665 nm/615 nm). The results were graphed to calculate the EC50.
Titration of ATP at the EC50 concentration of kinase to determine ATP Km,app. was performed using the following method. After making serial dilutions of ATP (Invitrogen), 5 μl of ATP dilution and 5 μl substrate/kinase mix were added to the wells of the white Optiplate-384 (PerkinElmer). The contents of the plate were and incubated at RT for 1 h. The reaction was stopped by adding 5 μl of stop solution to each test well followed by mixing and incubation at RT for 10 minutes. 5 μl of detection mix (detection antibody diluted in detection buffer) was added; the contents of the plate were mixed and then incubated in the dark for 1 hour at RT. The signal was recorded at TR-FRET mode (665 nm/615 nm). The results were graphed to calculate the EC50 as the ATP Km,app.
Compound screening was done via the following method. 10 mM stock solution of test compound in DMSO was prepared by dissolving test compound in DMSO at RT for 1 hour, and then sonicating at 100% output for 8 minutes. If compound is not soluble under this condition, it was diluted to 3 mM. Kinase reaction buffer was prepared containing 10 mM MgCl2, 50 mM HEPES, 1 mM EGTA, 0.01% TWEEN-20, 2 mM DTT. Serial dilutions of the test compounds were prepared at 4×final assay concentrations using Freedom EVO200® dispensing system as follows: 12×10^−5 M, 4×10^−5 M, 1.33×10^−5 M, 4.44×10^−6 M, 1.48×10^−6 M, 4.92×10^−7 M, 1.65×10^−7 M, 5.48×10^−7 M, 1.82×10^−8 M, 6.09×10^−9, 2.03×10^−9 M. Test compounds (2.5 μl at 4×the final assay concentration) was added to wells using Freedom EVO200® dispensing system. As a positive control, 2.5 μl of positive compound was added to assay wells, and 2.5 μl of DMSO to assay wells as vehicle control. Kinase solution was prepared in reaction buffer at 2×final assay concentration. Kinase solution (5 μl) was added to each well of the assay plate. The substrate and ATP solution was prepared in kinase reaction buffer at 4×final assay concentration. The kinase reaction was started by adding 2.5 μl of substrate+ATP mix solution to each well of the assay plate. The plate is mixed on a plate shaker; then covered and allowed to react for 2 hours in the dark at 25° C. without shaking. The reaction was stopped by adding 5 μl of stop solution to each test well followed by mixing and incubation at RT for 10 minutes in the dark. 5 μl of detection mix (detection antibody diluted in detection buffer) was added; the contents of the plate were mixed and then incubated in the dark for 1 hour at RT. The signal was recorded at TR-FRET mode (665 nm/615 nm).

PASK (Invitrogen), sequence (Q96RG2 999-1251): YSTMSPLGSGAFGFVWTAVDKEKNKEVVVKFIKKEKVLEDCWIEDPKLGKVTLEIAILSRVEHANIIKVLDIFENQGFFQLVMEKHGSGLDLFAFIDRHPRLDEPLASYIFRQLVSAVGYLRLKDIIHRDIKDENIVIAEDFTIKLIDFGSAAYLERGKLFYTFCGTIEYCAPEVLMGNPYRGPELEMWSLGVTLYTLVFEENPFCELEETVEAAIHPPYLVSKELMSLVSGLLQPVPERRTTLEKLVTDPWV

| Compound | IC50 [µM] |
| --- | --- |
| O=c1cc(-c2ccc3[nH]nnc3c2)[nH]c2nc(-c3cccc(Cl)c3)nn12 [Example 13, 5-(1H-Benzo[d][1,2,3]triazol-5-yl)-2-(3-chlorophenyl)-[1,2,4]triazolo[1,5-a]pyrimidin-7(4H)-one] | ≤ 10 |
| CC(C)c1nc2[nH]c(-c3ccc4[nH]nnc4c3)cc(=O)n2n1 [Example 14, 5-(1H-Benzo[d][1,2,3]triazol-5-yl)-2-isopropyl-[1,2,4]triazolo[1,5-a]pyrimidin-7(4H)-one] | ≤ 10 |
| Cc1nc2[nH]c(-c3ccc4c(c3)OCCO4)cc(=O)n2n1 [Example 16, 5-(2,3-Dihydrobenzo[b][1,4]dioxin-6-yl)-2-methyl-[1,2,4]triazolo[1,5-a]pyrimidin-7(4H)-one] | ≤ 10 |
| O=c1cc(-c2ccc3c(c2)OCCO3)[nH]c2ncnn12 [Example 17, 5-(2,3-Dihydrobenzo[b][1,4]dioxin-6-yl)-[1,2,4]triazolo[1,5-a]pyrimidin-7(4H)-one] | ≤ 10 |
| O=c1cc(-c2ccc3c(c2)OCCO3)[nH]c2nc(Cc3ccccc3)nn12 [Example 18, 2-Benzyl-5-(2,3-dihydrobenzo[b][1,4]dioxin-6-yl)-[1,2,4]triazolo[1,5-a]pyrimidin-7(4H)-one] | ≤ 10 |
| COc1ccc(-c2cc(=O)n3nc(Cc4ccccc4)nc3[nH]2)cc1 [Example 19, 2-Benzyl-5-(4-methoxyphenyl)-[1,2,4]triazolo[1,5-a]pyrimidin-7(4H)-one] | ≤ 10 |
| O=c1cc(-c2ccc3[nH]ncc3c2)[nH]c2nc(-c3ccc(F)cc3)nn12 [Example 20, 2-(4-Fluorophenyl)-5-(1H-indazol-5-yl)-[1,2,4]triazolo[1,5-a]pyrimidin-7(4H)-one] | ≤ 10 |
| CCn1ncc2cc(-c3cc(=O)n4nc(-c5ccc(F)cc5)nc4[nH]3)ccc21 [Example 21, 5-(1-Ethyl-1H-indazol-5-yl)-2-(4-fluorophenyl)-[1,2,4]triazolo[1,5-a]pyrimidin-7(4H)-one] | ≤ 10 |
| O=c1cc(-c2ccc3nn[nH]c3c2)[nH]c2nc(-c3ccccc3Cl)nn12 [Example 22, 5-(1H-Benzo[d][1,2,3]triazol-6-yl)-2-(2-chlorophenyl)-[1,2,4]triazolo[1,5-a]pyrimidin-7(4H)-one] | ≤ 10 |
| Cc1ccccc1-c1nc2[nH]c(-c3ccc4nn[nH]c4c3)cc(=O)n2n1 [Example 23, 5-(1H-benzo[d][1,2,3]triazol-6-yl)-2-o-tolyl-[1,2,4]triazolo[1,5-a]pyrimidin-7(4H)-one] | ≤ 10 |
| NC(=O)c1nc2[nH]c(-c3ccc4nn[nH]c4c3)cc(=O)n2n1 [Example 24, 5-(1H-benzo[d][1,2,3]triazol-6-yl)-7-oxo-4,7-dihydro-[1,2,4]triazolo[1,5-a]pyrimidine-2-carboxamide] | ≤ 10 |
| CCn1ncc2cc(-c3cc(=O)n4nc(-c5ccccc5Cl)nc4[nH]3)ccc21 [Example 25, 2-(2-chlorophenyl)-5-(1-ethyl-1H-indazol-5-yl)-[1,2,4]triazolo[1,5-a]pyrimidin-7(4H)-one] | ≤ 10 |
| COc1ccc(-c2cc(=O)n3ncnc3[nH]2)cc1 [Example 26, 5-(4-Methoxyphenyl)-[1,2,4]triazolo[1,5-a]pyrimidin-7(4H)-one] | ≤ 10 |
| COc1ccc(-c2cc(=O)n3nc(C)nc3[nH]2)cc1 [Example 27, 5-(4-Methoxyphenyl)-2-methyl-[1,2,4]triazolo[1,5-a]pyrimidin-7(4H)-one] | ≤ 10 |
| O=c1cc(-c2ccc3c(c2)OCCO3)[nH]c2nc(-c3ccccn3)nn12 [Example 28, 5-(2,3-Dihydrobenzo[b][1,4]dioxin-6-yl)-2-(pyridin-2-yl)-[1,2,4]triazolo[1,5-a]pyrimidin-7(4H)-one] | ≤ 10 |
| O=c1cc(-c2ccc3c(c2)OCO3)[nH]c2nc(-c3ccccn3)nn12 [Example 29, 5-(Benzo[d][1,3]dioxol-5-yl)-2-(pyridin-2-yl)-[1,2,4]triazolo[1,5-a]pyrimidin-7(4H)-one] | ≤ 10 |
| O=c1cc(-c2ccc3[nH]nnc3c2)[nH]c2nc(-c3ccc(Cl)cc3)nn12 [Example 39, 5-(1H-Benzo[d][1,2,3]triazol-5-yl)-2-(4-chlorophenyl)-[1,2,4]triazolo[1,5-a]pyrimidin-7(4H)-one] | ≤ 10 |
| O=c1cc(-c2ccc3[nH]nnc3c2)[nH]c2nc(-c3ccc(F)cc3)nn12 [Example 40, 5-(1H-Benzo[d][1,2,3]triazol-5-yl)-2-(4-fluorophenyl)-[1,2,4]triazolo[1,5-a]pyrimidin-7(4H)-one] | ≤ 10 |
| O=c1cc(-c2ccc3[nH]nnc3c2)[nH]c2nc(-c3ccccc3)nn12 [Example 41, 5-(1H-Benzo[d][1,2,3]triazol-5-yl)-2-phenyl-[1,2,4]triazolo[1,5-a]pyrimidin-7(4H)-one] | ≤ 10 |
| CCn1ncc2cc(-c3cc(=O)n4nc(-c5ccc(Cl)cc5)nc4[nH]3)ccc21 [Example 42, 2-(4-Chlorophenyl)-5-(1-ethyl-1H-indazol-5-yl)-[1,2,4]triazolo[1,5-a]pyrimidin-7(4H)-one] | ≤ 10 |
| Cc1nc2[nH]c(-c3ccc4[nH]nnc4c3)cc(=O)n2n1 [Example 43, 5-(1H-Benzo[d][1,2,3]triazol-5-yl)-2-methyl-[1,2,4]triazolo[1,5-a]pyrimidin-7(4H)-one] | ≤ 10 |

Results, then the compound that gave them:

| IC50 [µM] | Compound |
| --- | --- |
| ≤ 10 | O=c1cc(-c2ccc3c(c2)OCO3)[nH]c2nc(Cc3ccccc3)nn12 [Example 1, 5-(Benzo[d][1,3]dioxol-5-yl)-2-benzyl-[1,2,4]triazolo[1,5-a]pyrimidin-7(4H)-one] |
| ≤ 10 | O=c1cc(-c2ccc3[nH]nnc3c2)[nH]c2nc(-c3ccccn3)nn12 [Example 2, 5-(1H-Benzo[d][1,2,3]triazol-5-yl)-2-(pyridin-2-yl)-[1,2,4]triazolo[1,5-a]pyrimidin-7(4H)-one] |
| ≤ 10 | O=c1cc(-c2ccc3[nH]ncc3c2)[nH]c2nc(-c3ccccn3)nn12 [Example 3, 5-(1H-Indazol-5-yl)-2-(pyridin-2-yl)-[1,2,4]triazolo[1,5-a]pyrimidin-7(4H)-one] |
| ≤ 10 | Cc1nc2[nH]c(-c3ccc4[nH]ncc4c3)cc(=O)n2n1 [Example 4, 5-(1H-indazol-5-yl)-2-methyl-[1,2,4]triazolo[1,5-a]pyrimidin-7(4H)-one] |
| ≤ 10 | CCc1nc2[nH]c(-c3ccc4[nH]ncc4c3)cc(=O)n2n1 [Example 5, 2-Ethyl-5-(1H-indazol-5-yl)-[1,2,4]triazolo[1,5-a]pyrimidin-7(4H)-one] |
| ≤ 10 | CCc1nc2[nH]c(-c3ccc4[nH]nnc4c3)cc(=O)n2n1 [Example 6, 5-(1H-Benzo[d][1,2,3]triazol-5-yl)-2-ethyl-[1,2,4]triazolo[1,5-a]pyrimidin-7(4H)-one] |
| ≤ 10 | CNC(=O)c1nc2[nH]c(-c3ccc4[nH]nnc4c3)cc(=O)n2n1 [Example 7, 5-(1H-Benzo[d][1,2,3]triazol-5-yl)-N-methyl-7-oxo-4,7-dihydro-[1,2,4]triazolo[1,5-a]pyrimidine-2-carboxamide] |
| ≤ 10 | O=c1cc(-c2ccc3[nH]ncc3c2)[nH]c2nc(-c3ccc(Cl)c(Cl)c3)nn12 [Example 10, 2-(3,4-Dichlorophenyl)-5-(1H-indazol-5-yl)-[1,2,4]triazolo[1,5-a]pyrimidin-7(4H)-one] |
| ≤ 10 | O=c1cc(-c2ccc3[nH]ncc3c2)[nH]c2nc(-c3cccc(Cl)c3)nn12 [Example 12, 2-(3-Chlorophenyl)-5-(1H-indazol-5-yl)-[1,2,4]triazolo[1,5-a]pyrimidin-7(4H)-one] |
